On the set-up of data set [1]: species or system Wistar rats. Particulars: rat, in vivo, po, 1000 mg/kg. On the procedure:
Twelve healthy male Wistar rats aged 10-12-week-old (250-300 g) were used for the bioavailability study. The animals were procured from Biogen Laboratory Animal Facility, Bangalore, India (Reg No. 971/PO/RcBiBt/S/06/CPCSEA). All the animals were housed in air-conditioned room under temperature (22±3° C.) and humidity (30-70%) controlled environment. The rats were fed standard rodent diet and water ad libitum. The animal experimentation protocol was approved by the Institutional Animal Ethics Committee (IAEC) of Vidya Herbs Pvt Ltd., Bangalore, India (VHPL/PCL/IAEC/02/2021).
After 7-day acclimatization, the animals were fasted overnight prior to the experiment, with free access to water. […] The sample size was determined by power analysis (Festing and Altman, 2002) using the formula,
The extracts were formulated in a mixture of Cremaphor, Tween 80, ethanol, and water. The extracts were administered by oral gavage at a single dose of 1000 mg/kg. The animals were anesthetised in anaesthesia chamber supplied with 2% gaseous isoflurane. Blood samples were collected from tail vein at 0.25, 0.5, 1, 2, 4, 8, 12 and 24 h after oral administration of extracts. The blood samples collected in heparinized tubes were centrifuged at 3000 rpm for 10 min. The plasma samples were stored at −20° C. for further analysis. […]

The format of data set [2] is in vitro ADME. As for the experimental part: Briefly, 20 mL of the saline solution containing 1 mL plant extracts were acidified to pH 2.0 by adding porcine pepsin preparation (40 mg/mL in 0.1 M HCl) and allowed for gastric digestion at 37° C. in a shaker incubator. After 1 h, the pH of the solution was adjusted to 5.3 using 0.9 M NaHCO3 solution. To this added 200 μL of bovine and porcine bile extract solution (100 mg/mL in saline), and 100 μL of pancreatin solution (80 mg/mL in saline). The pH was readjusted to 7.5 using 1 M NaOH followed by incubation at 37° C. for 2 h to accomplish the intestinal digestion phase. Aliquots of samples before and after digestion were centrifuged at 5000 g; upper phase used for anti-lipase and antioxidant assays. The samples were further used for HPLC analysis to determine the bioavailability.
HPLC analysis of the samples before and after gastrointestinal digestion was performed following the in-house validated chromatographic conditions using a Shimadzu LC2030 C Prominence-i (Japan) system equipped with a high sensitivity LC2030 ultraviolet (UV) detector and LabSolutions software.

Data set [3] relates to carrageenan-induced paw edema. Nature of the data set: Carrageenan-induced acute inflammatory model (paw edema). It is filed as in vivo, Wistar rats. The settings on record: Indomethacin 10 mg/kg.bw. On the procedure: Wistar rats were randomly allotted into six groups (n=6) and kept for 7-day acclimatization. Group 1 was treated as control, group 2 received indomethacin 10 mg/kg.bw. […] All animal studies have been carried out by following the animal ethical guidelines and regulation of Institutional Animal Ethics Committee of Vidya Herbs Pvt. Ltd. Bangalore. India. with the protocol number VHPL/PCL/IAEC/08/19.
The carrageenan-induced paw edema test was performed in accordance with the method 17 with some modifications. Drugs were administered to all the respective groups. One hour later, the animals were injected with 0.01 mL of 1% (w/v) freshly prepared carrageenan solution into the right-hind paw sub plantar injection. Paw thickness and volume were measured after 30 min, 1, 2, 4, and 24 h after carrageenan injection using Vernier callipers and Plethysmometer, respectively. The percentage inhibition of inflammation was calculated.
Data were analyzed using one-way analysis of variance (ANOVA) with Duncan multiple range test for means ±standard error, where *P<0.001 was considered to indicate statistically significant difference between groups. All the experimental data were derived from three independent experiments.

Data set [4] deals with Monoamine oxidase-B (MAO-B). Nature of the data set: MAO-B inhibition assay (rat liver homogenate). It counts as biochemical. On the procedure: The rat liver tissues were quickly removed to wash in ice-cold potassium phosphate buffer (0.2 M, pH 7.6), and stored at −80° C. 5 g of liver tissue was homogenized (1:20, w/v) in 0.3 M sucrose at 4° C. and centrifuged at 2000×g for 10 min. The supernatant was further centrifuged at 12000×g for 25 min. The resulting pellet suspended in minimal volume in 0.3 M sucrose and overlay on 1.3 M sucrose and centrifuge at 12000×g (40 min) to obtain a crude mitochondrial pellet. The pellet was resuspended in 2 mL 0.2 M phosphate buffer (pH 7.6) used as MAO-B enzyme source. Total protein concentration was measured by the method of Bradford and adjusted with buffer (0.2 M; pH 7.6) to 0.5 mg protein per ml (stock solution) and stored at −80° C. in aliquots until required.
The assay was carried out in 96-well microplates according to the process modified by Holt' et al. (1997). […] Paragyline was used as the standard inhibitor.

Marks after values point to notes of the source that are not given here.

Take `O=C(/C=C/c1ccc(O)cc1)CC(=O)/C=C/c1ccc(O)cc1` [BDMC, bisdemethoxycurcumin]: in data set [1], the AUC0-Last result was “markedly increased”. For the same compound, in data set [2], the “bioavailability with respect to undigested sample” value was “considerably higher” and the “concentration in the samples at different digestive phases” value is “remained unchanged”.

For the compound `COc1ccc2c(c1)c(CC(=O)O)c(C)n2C(=O)c1ccc(Cl)cc1` [Indomethacin], the Paw thickness in data set [3] (0 h) is given as 2.41 ± 0.12 mm; in data set [3] (0.5 h), 3.18 ± 0.09*** mm; in data set [3] (1 h), 3.73 ± 0.07*** mm; in data set [3] (2 h) it was 3.12 ± 0.11*** mm; in data set [3] (4 h), 2.67 ± 0.09*** mm; in data set [3] (24 h), 2.43 ± 0.10*** mm. The Paw volume in data set [3] (0 h) is 1.12 ± 0.04 mL; in data set [3] (0.5 h), 1.32 ± 0.04** mL; in data set [3] (1 h), 1.57 ± 0.08*** mL; in data set [3] (2 h) it was 1.47 ± 0.06*** mL; in data set [3] (4 h), 1.37 ± 0.03*** mL; in data set [3] (24 h), 1.16 ± 0.05*** mL.

For `C#CCN(C)Cc1ccccc1` [paragyline], the “MAO-B IC-50” value in data set [4] came out at 6.5 µg/mL.

These data come from US20240024255A1 (priority 2022, published 2024).
